Consider twelve compounds from patent publication US20070027143A1, “Novel substituted 2,3-benzodiazepine derivatives” (priority 2003, published 2007).

Usually melting point stands for the temperature, or range, at which the solid turns liquid. In turn, `CC1Cc2cc3c(cc2C(c2ccc(N)cc2)=NN1C1=NC(=O)CCS1)OCO3` (racemic) [Example 73, (±)-5-(4-Aminophenyl)-7-(5,6-dihydro-4-oxo-4H-1,3-thiazin-2-yl)-8-methyl-8,9-dihydro-7H-1,3-dioxolo-[4,5-h][2,3]benzodiazepine] yielded a melting point of 226 to 228 °C. Compound `CC1Cc2ccc(Cl)cc2C(c2ccc(N)cc2)=NN1C1=NCCS1` (racemic) [Example 79, (±)-1-(4-Aminophenyl)-3-(4,5-dihydro-thiazol-2-yl)-8-chloro-4-methyl-4,5-dihydro-3H-[2,3]benzodiazepine] gave a melting point of 213 to 216 °C. As for `CC1Cc2cc3c(cc2C(c2ccc(N)cc2)=NN1C1=NN=C(NC2CC2)[SH]1C)OCO3` (racemic) [Example 92, (±)-5-(4-Aminophenyl)-7-(5-cyclopropylamino-methyl-1,3,4-thiadiazol-2-yl)-8-methyl-8,9-dihydro-7H-1,3-dioxolo[4,5-h][2,3]benzodiazepine], the figure is 135 to 138 °C; as for `C[C@H]1Cc2cc3c(cc2C(c2ccc(N)cc2)=NN1C1=NCCS1)OCO3` [Example 70, (S)-5-(4-Aminophenyl)-7-(4,5-dihydro-thiazol-2-yl)-8-methyl-8,9-dihydro-7H-1,3-dioxolo-[4,5-h][2,3]benzodiazepine], 150 to 152 °C. The same measure for `CC(=O)Nc1ccc(C2=NN(C3=NCCS3)[C@H](C)Cc3cc4c(cc32)OCO4)cc1` [Example 125, (R)-5-(4-Acetylaminophenyl)-7-(4,5-dihydro-thiazol-2-yl)-8-methyl-8,9-dihydro-7H-1,3-dioxolo-[4,5-h][2,3]benzodiazepine]: 143 to 145 °C; for `Cc1ncc(N2N=C(c3ccc(N)cc3)c3cc4c(cc3CC2C)OCO4)o1` (racemic) [Example 187, (±)-5-(4-Aminophenyl)-8-methyl-7-(2-methyl-1,3-oxazol-5-yl)-8,9-dihydro-7H-1,3-dioxolo-[4,5-h][2,3]benzodiazepine]: 148 to 150 °C; for `Cc1nnc(N2N=C(c3ccc(N)cc3)c3cc(Cl)ccc3CC2C)s1` (racemic) [Example 94, (±)-1-(4-Aminophenyl)-8-chloro-4-methyl-3-(5-methyl-1,3,4-thiadiazol-2-yl)-4,5-dihydro-3H-[2,3]benzodiazepine]: 131 to 133 °C.

Regarding `Cc1nnc(N2N=C(c3ccc(N)c(C)c3)c3cc4c(cc3CC2C)OCO4)s1` (racemic) [Example 95, (±)-5-(4-Amino-3-methylphenyl)-8-methyl-7-(5-methyl-1,3,4-thiadiazol-2-yl)-8,9-dihydro-7H-1,3-dioxolo-[4,5-h][2,3]benzodiazepine], the melting point was 140 to 144 °C. Take `CC1Cc2ccc(Cl)cc2C(c2ccc(N)cc2)=NN1c1nncs1` (racemic) [Example 93, (±)-1-(4-Aminophenyl)-8-chloro-4-methyl-3-(1,3,4-thiadiazol-2-yl)-4,5-dihydro-3H-[2,3]benzodiazepine]: the melting point fell in the range of 125 to 128 °C.

In turn, `CCc1nnc(N2N=C(c3ccc([N+](=O)[O-])cc3)c3cc4c(cc3C[C@H]2C)OCO4)s1` [Example 31, (R)-7-(5-Ethyl-1,3,4-thiadiazol-2-yl)-8-methyl-5-(4-nitrophenyl)-8,9-dihydro-7H-1,3-dioxolo[4,5-h][2,3]benzodiazepine] gave a melting point of 105 °C. The same measure for `Cc1cc(C2=NN(c3nnc(C4CC4)s3)[C@H](C)Cc3cc4c(cc32)OCO4)ccc1[N+](=O)[O-]` [Example 139, (R)-7-(5-Cyclopropyl-1,3,4-thiadiazol-2-yl)-8-methyl-5-(3-methyl-4-nitrophenyl)-8,9-dihydro-7H-1,3-dioxolo[4,5-h][2,3]benzodiazepine]: 126 to 130 °C. The same measure for `CC1Cc2cc3c(cc2C(c2ccc(N)cc2)=NN1c1ncccn1)OCO3` (racemic) [Example 111, (±)-5-(4-Aminophenyl)-8-methyl-7-(2-pyrimidinyl)-8,9-dihydro-7H-1,3-dioxolo[4,5-h][2,3]benzodiazepine]: 233 to 235 °C.
